Test results reported in PubChem BioAssay (NCI).
Values joined by “and” are separate entries in the source; they are usually repeats but may differ in a detail not shown here. Equal entries are not always repeated.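 Five concentrations, 48 hours, 96-well plates. The concentration for 50% growth inhibition is given as GI50. TGI is the concentration that stops growth completely.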

Legend:
Experiment in all cases: NCI tumour cell line growth inhibition, 48 h
[1] = system: RPMI-8226 leukemia
[2] = system: SK-MEL-28 melanoma
[3] = system: CCRF-CEM leukemia
[4] = system: SR leukemia
[5] = system: UO-31 renal
[6] = system: MCF7 breast
[7] = system: HOP-62 NSCLC
[8] = system: HT29 colon
[9] = system: 786-0 renal
[10] = system: SK-MEL-5 melanoma

Compound	GI50 [1] [µM]	TGI [1]	GI50 [2] [µM]	TGI [2] [µM]	GI50 [3] [µM]	TGI [3]	GI50 [4] [µM]	TGI [4] [µM]	GI50 [5] [µM]	TGI [5]	GI50 [6] [µM]	TGI [6]	GI50 [7] [µM]	TGI [7]	GI50 [8] [µM]	TGI [8]	GI50 [9] [µM]	TGI [9]	GI50 [10] [µM]	TGI [10]
CN(C)c1ccc(N=C2C=CC(=O)c3ccccc32)cc1	2.92	19.7 µM	2.38	5.73	2.13	6.17 µM	2.86	14.1	2.28	16.6 µM	1.87	7.46 µM	2.19	6.62 µM	3.62	12.2 µM	15.2	32.5 µM	1.34	2.72 µM
Cc1ccc(S(=O)(=O)N2CCc3ccc(O)c4c3C2Cc2ccc3c(c2-4)OCO3)cc1 (stereo not drawn)	0.959	5.08 µM	0.668	18.6	0.847	> 27.6 µM	0.352	5.98	0.904	11.8 µM	0.317	10.2 µM	1.89	27.9 µM	2.79	7.25 µM	0.894	20.8 µM	0.486	2.18 µM
O=C(O)Cc1cccc2c(=O)c3cccc([N+](=O)[O-])c3oc12	–	> 100 µM	–	> 100	–	> 100 µM	–	> 100	–	> 100 µM	–	> 100 µM	–	> 100 µM	–	> 100 µM	–	> 100 µM	–	> 100 µM
Cc1ccc(OCC2OC(n3cnc4c(Br)nc(Br)nc43)CC2Oc2ccc(C)cc2)cc1 (stereo not drawn)	7.52	28.7 µM and > 71.3 µM	–	10.1	1.8	3.44 µM and > 25.5 µM	–	4.67	11.9	22.3 µM and 28.4 µM	2.52	8.4 µM and 30.3 µM	9.08	19.2 µM and 17.1 µM	2.32	8 µM and 7.2 µM	1.57	3.48 µM and 9.92 µM	13.4	23.8 µM and 23.7 µM
Nc1ccc(Sc2c3ccccc3nc3ccccc23)cc1	–	17.4 µM	–	24.8	–	30.2 µM	–	32.4	–	34.3 µM	–	28.8 µM	–	56.9 µM	–	32 µM	–	14.7 µM	–	30.6 µM
COC1=CC(=O)c2nc(Cl)ccc2C1=O	2.59	7.9 µM	1.88	3.47	2.23	> 100 µM	3.17	> 100	1.63	3.12 µM	1.91	4.19 µM	1.94	3.4 µM	2.21	4.74 µM	2.02	3.76 µM	1.66	3.02 µM
[CH3][Sn]([CH3])([CH3])[O][N+](=O)[O-]	4.98	> 10 µM	> 10	> 10	2.19	6.9 µM	1.48	3.33	> 10	> 10 µM	2.87	> 10 µM	6.41	> 10 µM	5.8	> 10 µM	1.92	3.51 µM	1.52	2.97 µM
C/C(=N/Nc1nc(C)cc(=O)[nH]1)C(=O)O	–	> 100 µM	–	> 100	–	> 100 µM	–	> 100	–	> 100 µM	–	> 100 µM	–	> 100 µM	–	> 100 µM	–	> 100 µM	–	> 100 µM
